In the OligoGym collection:
Oligonucleotides are written 5' to 3', each unit as a sugar letter and its base; * is a phosphorothioate linkage, no mark a phosphodiester; rarer units and linkages stand in square brackets, end groups in braces. Plain capitals give the bases only. d = 2'-deoxy (DNA); r = 2'-OH (RNA)

Each substance was assayed against DENND5A (assay: reporter assay of Huesken 2005). Settings: siRNA.
Further: test concentration or dose not given here.

| Substance | normalised inhibition (eCFP-eYFP dual reporter) |
| --- | --- |
| sense rArArArUrCrArGrCrCrUrUrArUrGrGrUrCrCrCdTdT / antisense rGrGrGrArCrCrArUrArArGrGrCrUrGrArUrUrUdCdC | 41.9% |
| sense rArArCrArGrGrGrArGrCrArArArUrGrCrArArAdTdT / antisense rUrUrUrGrCrArUrUrUrGrCrUrCrCrCrUrGrUrUdGdG | 49.2% |
| sense rArArCrCrUrArUrUrArUrGrArGrArCrArUrUrAdTdT / antisense rUrArArUrGrUrCrUrCrArUrArArUrArGrGrUrUdTdG | 66.3% |
| sense rArArCrUrGrGrGrGrUrGrArGrCrCrUrGrGrArAdTdT / antisense rUrUrCrCrArGrGrCrUrCrArCrCrCrCrArGrUrUdCdT | 58.4% |
| sense rArArGrArGrGrArArUrGrGrGrArArCrArUrUrGdTdT / antisense rCrArArUrGrUrUrCrCrCrArUrUrCrCrUrCrUrUdGdT | 50% |
| sense rArArUrGrGrCrArUrUrGrUrGrArArGrCrArCrUdTdT / antisense rArGrUrGrCrUrUrCrArCrArArUrGrCrCrArUrUdGdA | 60.5% |
| sense rArArUrGrGrGrArArCrArUrUrGrCrUrGrGrCrUdTdT / antisense rArGrCrCrArGrCrArArUrGrUrUrCrCrCrArUrUdCdC | 43.6% |
| sense rArCrArUrCrCrArGrArArCrArUrCrGrGrGrGrAdTdT / antisense rUrCrCrCrCrGrArUrGrUrUrCrUrGrGrArUrGrUdGdC | 44.4% |
| sense rArCrArUrGrArArGrArUrUrGrGrArCrArArGrGdTdT / antisense rCrCrUrUrGrUrCrCrArArUrCrUrUrCrArUrGrUdCdA | 70.5% |
| sense rArCrCrCrCrArGrCrArGrCrArArUrArArGrGrAdTdT / antisense rUrCrCrUrUrArUrUrGrCrUrGrCrUrGrGrGrGrUdCdT | 64.9% |
| sense rArCrCrUrGrCrCrCrUrUrCrCrUrCrUrCrArArGdTdT / antisense rCrUrUrGrArGrArGrGrArArGrGrGrCrArGrGrUdAdG | 53.2% |
| sense rArCrGrArGrCrUrGrUrCrGrGrCrArUrUrArUrGdTdT / antisense rCrArUrArArUrGrCrCrGrArCrArGrCrUrCrGrUdCdC | 54.1% |
| sense rArCrGrCrUrGrUrUrGrCrUrCrUrGrUrGrGrArGdTdT / antisense rCrUrCrCrArCrArGrArGrCrArArCrArGrCrGrUdCdA | 60.7% |
| sense rArCrUrGrGrGrGrUrGrArGrCrCrUrGrGrArArAdTdT / antisense rUrUrUrCrCrArGrGrCrUrCrArCrCrCrCrArGrUdTdC | 37.1% |
| sense rArGrArArCrUrUrGrGrGrGrArArGrCrUrUrArCdTdT / antisense rGrUrArArGrCrUrUrCrCrCrCrArArGrUrUrCrUdGdG | 88.2% |
| sense rArGrArArGrArArCrUrCrArGrGrArUrUrUrArCdTdT / antisense rGrUrArArArUrCrCrUrGrArGrUrUrCrUrUrCrUdTdC | 44.7% |
| sense rArGrArCrCrCrArGrGrCrUrGrArUrCrCrCrArGdTdT / antisense rCrUrGrGrGrArUrCrArGrCrCrUrGrGrGrUrCrUdTdG | 75.1% |
| sense rArGrArGrGrArArUrGrGrGrArArCrArUrUrGrCdTdT / antisense rGrCrArArUrGrUrUrCrCrCrArUrUrCrCrUrCrUdTdG | 53.6% |

| Substance | normalised inhibition (eCFP-eYFP dual reporter) |
| --- | --- |
| sense rArGrArGrGrGrArGrArArGrUrArCrArUrCrCrAdTdT / antisense rUrGrGrArUrGrUrArCrUrUrCrUrCrCrCrUrCrUdGdG | 80.7% |
| sense rArGrArGrUrGrCrCrUrCrCrArArGrCrUrGrArAdTdT / antisense rUrUrCrArGrCrUrUrGrGrArGrGrCrArCrUrCrUdCdA | 66.9% |
| sense rArGrCrCrCrCrArArUrUrCrCrArUrGrCrCrUrUdTdT / antisense rArArGrGrCrArUrGrGrArArUrUrGrGrGrGrCrUdCdC | 57.6% |
| sense rArGrCrUrGrArArGrArGrGrCrUrGrCrGrGrGrCdTdT / antisense rGrCrCrCrGrCrArGrCrCrUrCrUrUrCrArGrCrUdTdG | 54.9% |
| sense rArGrGrArCrArArCrCrGrGrCrArGrArGrArArAdTdT / antisense rUrUrUrCrUrCrUrGrCrCrGrGrUrUrGrUrCrCrUdGdA | 67% |
| sense rArGrGrArGrArArUrUrGrGrGrUrGrArGrArCrAdTdT / antisense rUrGrUrCrUrCrArCrCrCrArArUrUrCrUrCrCrUdGdA | 70.5% |
| sense rArGrGrCrUrGrArUrCrCrCrArGrGrGrArGrCrCdTdT / antisense rGrGrCrUrCrCrCrUrGrGrGrArUrCrArGrCrCrUdGdG | 57.4% |
| sense rArGrGrGrArUrGrGrUrGrCrCrArGrCrCrCrUrUdTdT / antisense rArArGrGrGrCrUrGrGrCrArCrCrArUrCrCrCrUdGdG | 83.7% |
| sense rArGrUrUrGrCrCrArGrArGrGrArCrUrUrGrCrCdTdT / antisense rGrGrCrArArGrUrCrCrUrCrUrGrGrCrArArCrUdCdA | 71.7% |
| sense rArUrCrCrArArCrCrCrArGrCrCrArGrGrArUrAdTdT / antisense rUrArUrCrCrUrGrGrCrUrGrGrGrUrUrGrGrArUdGdA | 51.8% |
| sense rArUrCrCrGrCrCrArGrCrCrCrArArArCrUrGrUdTdT / antisense rArCrArGrUrUrUrGrGrGrCrUrGrGrCrGrGrArUdAdG | 40.9% |
| sense rArUrGrCrCrArArArUrGrGrCrUrGrGrUrGrGrAdTdT / antisense rUrCrCrArCrCrArGrCrCrArUrUrUrGrGrCrArUdAdC | 69.5% |
| sense rArUrGrGrCrUrGrGrUrGrGrArGrUrArUrGrUrGdTdT / antisense rCrArCrArUrArCrUrCrCrArCrCrArGrCrCrArUdTdT | 71.9% |
| sense rArUrUrCrCrUrArCrGrArGrCrUrUrCrUrUrArAdTdT / antisense rUrUrArArGrArArGrCrUrCrGrUrArGrGrArArUdGdC | 65.4% |
| sense rArUrUrGrArCrArArCrCrArCrUrUrCrArUrUrGdTdT / antisense rCrArArUrGrArArGrUrGrGrUrUrGrUrCrArArUdGdT | 48.7% |
| sense rArUrUrGrArCrCrArUrArCrUrGrCrArArUrUrCdTdT / antisense rGrArArUrUrGrCrArGrUrArUrGrGrUrCrArArUdTdT | 45.9% |
| sense rArUrUrGrCrCrArGrCrCrUrUrUrGrUrGrArUrCdTdT / antisense rGrArUrCrArCrArArArGrGrCrUrGrGrCrArArUdCdA | 48.5% |
| sense rArUrUrUrGrArCrUrUrUrCrCrUrGrUrCrArArAdTdT / antisense rUrUrUrGrArCrArGrGrArArArGrUrCrArArArUdAdG | 53.7% |

What follows are substances tested against MRFAP1 (assay: reporter assay of Huesken 2005). Settings: siRNA.

| Substance | normalised inhibition (eCFP-eYFP dual reporter) |
| --- | --- |
| sense rUrGrCrArGrCrArArUrGrGrCrArGrArArGrArAdTdT / antisense rUrUrCrUrUrCrUrGrCrCrArUrUrGrCrUrGrCrAdTdG | 72.9% |
| sense rUrGrCrArGrCrUrCrGrUrGrCrGrGrCrGrGrArUdTdT / antisense rArUrCrCrGrCrCrGrCrArCrGrArGrCrUrGrCrAdCdC | 33.7% |
| sense rUrGrGrArCrArArUrArUrGrCrUrGrArUrCrCrAdTdT / antisense rUrGrGrArUrCrArGrCrArUrArUrUrGrUrCrCrAdTdC | 91.5% |
| sense rUrGrGrArGrGrUrGrCrUrGrGrArGrCrCrGrGrAdTdT / antisense rUrCrCrGrGrCrUrCrCrArGrCrArCrCrUrCrCrAdCdC | 69.1% |
| sense rUrGrUrUrCrGrUrCrUrGrUrArCrArArGrUrUrGdTdT / antisense rCrArArCrUrUrGrUrArCrArGrArCrGrArArCrAdAdG | 84.8% |
| sense rUrGrUrUrCrUrCrArCrUrGrArCrArCrUrArCrGdTdT / antisense rCrGrUrArGrUrGrUrCrArGrUrGrArGrArArCrAdGdA | 68.9% |
| sense rUrGrUrUrGrGrGrArCrArGrCrCrUrArArCrUrCdTdT / antisense rGrArGrUrUrArGrGrCrUrGrUrCrCrCrArArCrAdAdA | 85.6% |
| sense rUrUrArCrCrArUrGrUrUrGrArArArArCrArArAdTdT / antisense rUrUrUrGrUrUrUrUrCrArArCrArUrGrGrUrArAdGdG | 91.3% |
| sense rUrUrCrUrCrArCrUrGrArCrArCrUrArCrGrUrUdTdT / antisense rArArCrGrUrArGrUrGrUrCrArGrUrGrArGrArAdCdA | 72.2% |
| sense rUrUrGrArUrUrUrGrGrArArArArUrGrCrGrCrUdTdT / antisense rArGrCrGrCrArUrUrUrUrCrCrArArArUrCrArAdAdG | 68.1% |
| sense rUrUrGrGrArArArArUrGrCrGrCrUrCrArCrArUdTdT / antisense rArUrGrUrGrArGrCrGrCrArUrUrUrUrCrCrArAdAdT | 38.7% |
| sense rUrUrGrGrCrUrGrArCrArUrGrArCrArCrCrCrUdTdT / antisense rArGrGrGrUrGrUrCrArUrGrUrCrArGrCrCrArAdTdC | 65.4% |
| sense rUrUrGrUrUrCrGrUrCrUrGrUrArCrArArGrUrUdTdT / antisense rArArCrUrUrGrUrArCrArGrArCrGrArArCrArAdGdA | 55.5% |
| sense rUrUrUrGrArGrGrUrCrArArArArCrCrCrUrUrAdTdT / antisense rUrArArGrGrGrUrUrUrUrGrArCrCrUrCrArArAdTdG | 82.6% |
| sense rUrUrUrGrGrArArArArUrGrCrGrCrUrCrArCrAdTdT / antisense rUrGrUrGrArGrCrGrCrArUrUrUrUrCrCrArArAdTdC | 47.6% |
| sense rUrUrUrGrGrGrUrCrCrCrUrGrUrGrArCrArCrUdTdT / antisense rArGrUrGrUrCrArCrArGrGrGrArCrCrCrArArAdGdT | 50.8% |
